# Source: PMC12186298, “Phase 1 clinical trial of eneboparatide, a novel PTH receptor 1 agonist” (Endocrine Connections, 2025)
# Read-outs that look alike come from different tables or passages of the source. Peptide text beside a SMILES is read from it.
# Assays:
# [1] = Plasma pharmacokinetics, multiple ascending dose (Part B); assay type: in vivo, human; conditions: for AUC(0–∞) / Cmax / Tmax / AUC(0-inf): Part B MAD; for Cmax: LC-MS/MS, mean ± SD
# Protocol: Plasma samples were collected pre-dose and at scheduled time points up to 6 h post-dose on day 1 (Parts A and B) and day 14 (Part B). The analysis of eneboparatide in plasma samples was performed at QPS (The Netherlands) using a hybrid immunoaffinity liquid chromatography–mass spectrometry/mass spectrometry (LC-MS/MS) method, with a validated lower limit of quantification (LLOQ) of 50 pg/mL.
# [2] = test system: healthy subjects; assay: Safety and tolerability, adverse events, Part B MAD; conditions: Part B, n = 8
# Protocol: A total of five sequential cohorts were included in Part B with ten subjects in each cohort (eight receiving eneboparatide at a dose of 10, 20, 40, 60 and 80 μg/day, respectively, and two receiving placebo in a randomized and double-blind manner). […] They were resident in the study unit until day 17 and FU evaluation was performed on day 21–25.
# Safety and tolerability assessments consisted of adverse events (AEs), clinical laboratory (clinical chemistry, haematology, coagulation, and urinalysis), vital signs (blood pressure, pulse rate, respiratory rate, and temperature), 12-lead ECG (Part B), 24 h continuous cardiac monitoring (telemetry; Part A), body weight, physical examination, injection site reaction, and measurement of antidrug antibodies (ADA) in plasma (Part B).
structure (smiles),measurement,setting,value
CC[C@H](C)[C@H](NC(=O)[C@H](CCC(=O)O)NC(=O)[C@H](C)NC(=O)[C@@H](NC(=O)[C@H](Cc1c[nH]cn1)NC(=O)[C@@H](NC(=O)[C@H](CCC(=O)O)NC(=O)[C@H](C)NC(=O)[C@@H](NC(=O)[C@H](CC(C)C)NC(=O)[C@H](CCCCN)NC(=O)[C@H](Cc1c[nH]cn1)NC(=O)[C@H](CC(C)C)NC(=O)[C@H](Cc1ccccc1)NC(=O)[C@H](C)NC(=O)[C@H](CCCNC(=N)N)NC(=O)[C@H](CCCNC(=N)N)NC(=O)[C@H](CCCNC(=N)N)NC(=O)[C@H](C)NC(=O)[C@H](CC(=O)O)NC(=O)[C@H](CCC(N)=O)NC(=O)[C@@H](NC(=O)[C@H](Cc1c[nH]c2ccccc12)NC(=O)[C@H](CCCCN)NC(=O)[C@H](C)NC(=O)[C@H](CCCNC(=N)N)NC(=O)[C@H](CCC(N)=O)NC(=O)[C@H](Cc1c[nH]cn1)NC(=O)[C@H](CCSC)NC(=O)[C@H](CC(C)C)NC(=O)[C@H](CCC(N)=O)NC(=O)[C@@H](NC(=O)[C@H](CCC(=O)O)NC(=O)[C@H](C)NC(=O)[C@@H](NC(=O)[C@H](C)N)C(C)C)[C@@H](C)CC)[C@@H](C)CC)[C@@H](C)CC)[C@@H](C)CC)[C@@H](C)O)C(=O)O [eneboparatide] (H-AVAEIQLMHQRAKWIQDARRRAFLHKLIAEIHTAEI-OH; N-terminus and C-terminus assumed),AUC(0–∞),"[1]; 10 μg/day sc, Day 1, n = 4, mean ± SD",3.26 ± 3.20 ng·h/mL
same,Cmax,"[1]; 10 μg/day sc, Day 1, n = 4, plasma",20.6 ± 3.43 ng/mL
same,Cmax,"[1]; 10 μg/day sc, Day 14, n = 4, plasma",18.4 ± 5.37 ng/mL
same,AUC(0–∞),"[1]; 20 μg/day sc, Day 1, n = 8, mean ± SD",7.69 ± 5.52 ng·h/mL
same,Cmax,"[1]; 20 μg/day sc, Day 1, n = 8, plasma",19.6 ± 5.68 ng/mL
same,AUC(0–∞),"[1]; 40 μg/day sc, Day 1, n = 8, mean ± SD",15.8 ± 11.5 ng·h/mL
same,Cmax,"[1]; 40 μg/day sc, Day 1, n = 8, plasma",23.8 ± 8.97 ng/mL
same,Tmax,"[1]; 40 μg/day sc, Day 14, n = 8, median",10.2 min
same,AUC(0–∞),"[1]; 60 μg/day sc, Day 1, n = 8, mean ± SD",43.3 ± 18.1 ng·h/mL
same,Cmax,"[1]; 60 μg/day sc, Day 1, n = 8, plasma",42.9 ± 30.3 ng/mL
same,Tmax,"[1]; 60 μg/day sc, Day 14, n = 7, median",19.8 min
same,AUC(0–∞),"[1]; 80 μg/day sc, Day 1, n = 8, mean ± SD",64.2 ± 56.1 ng·h/mL
same,Cmax,"[1]; 80 μg/day sc, Day 1, n = 8, plasma",124 ± 105 ng/mL
same,accumulation in plasma,"[1]; after 14 consecutive daily administrations, day 14 vs day 1",absence of accumulation
same,Tmax,"[1]; human, plasma, sc, 10 μg/day, 10 μg/day sc, Day 1, n = 4, median, read-out: Tmax",19.8 min
same,Tmax,"[1]; human, plasma, sc, 10 μg/day, 10 μg/day sc, Day 14, n = 4, median, read-out: Tmax",5.4 min
same,Tmax,"[1]; human, plasma, sc, 20 μg/day, 20 μg/day sc, Day 1, n = 8, median, read-out: Tmax",7.8 min
same,Tmax,"[1]; human, plasma, sc, 20 μg/day, 20 μg/day sc, Day 14, n = 7, median, read-out: Tmax",10.2 min
same,Tmax,"[1]; human, plasma, sc, 40 μg/day, 40 μg/day sc, Day 1, n = 8, median, read-out: Tmax",10.2 min
same,Tmax,"[1]; human, plasma, sc, 60 μg/day, 60 μg/day sc, Day 1, n = 8, median, read-out: Tmax",19.8 min
same,Tmax,"[1]; human, plasma, sc, 80 μg/day, 80 μg/day sc, Day 1, n = 8, median, read-out: Tmax",10.2 min
same,Tmax,"[1]; human, plasma, sc, 80 μg/day, 80 μg/day sc, Day 14, n = 8, median, read-out: Tmax",10.8 min
same,AUC(0-inf),"[1]; human, plasma, 10 μg/day sc, Day 14, n = 4, mean ± SD",2.02 ± 2.41 ng·h/mL
same,AUC(0-inf),"[1]; human, plasma, 20 μg/day sc, Day 14, n = 7, mean ± SD",4.63 ± 3.29 ng·h/mL
same,AUC(0-inf),"[1]; human, plasma, 40 μg/day sc, Day 14, n = 8, mean ± SD",12.5 ± 4.75 ng·h/mL
same,AUC(0-inf),"[1]; human, plasma, 60 μg/day sc, Day 14, n = 7, mean ± SD",58.8 ± 30.3 ng·h/mL
same,AUC(0-inf),"[1]; human, plasma, 80 μg/day sc, Day 14, n = 8, mean ± SD",51.9 ± 51.6 ng·h/mL
same,Cmax,"[1]; human, 20 μg/day sc, Day 14, n = 7, plasma, read-out: Cmax",18.3 ± 6.78 ng/mL
same,Cmax,"[1]; human, 40 μg/day sc, Day 14, n = 8, plasma, read-out: Cmax",23.6 ± 5.5 ng/mL
same,Cmax,"[1]; human, 60 μg/day sc, Day 14, n = 7, plasma, read-out: Cmax",44.9 ± 17.9 ng/mL
same,Cmax,"[1]; human, 80 μg/day sc, Day 14, n = 8, plasma, read-out: Cmax",63.5 ± 28.3 ng/mL
same,"Abdominal pain, subjects with TEAE",[2]; 10 μg/day sc 14 days,0
same,"Application site irritation, subjects with TEAE",[2]; 10 μg/day sc 14 days,0
same,"Catheter site haematoma, subjects with TEAE",[2]; 10 μg/day sc 14 days,3
same,"Catheter site pain, subjects with TEAE",[2]; 10 μg/day sc 14 days,1
same,"Decreased appetite, subjects with TEAE",[2]; 10 μg/day sc 14 days,0
same,"Diarrhoea, subjects with TEAE",[2]; 10 μg/day sc 14 days,0
same,"Dizziness, subjects with TEAE",[2]; 10 μg/day sc 14 days,0
same,"Dry skin, subjects with TEAE",[2]; 10 μg/day sc 14 days,0
same,"Dyspepsia, subjects with TEAE",[2]; 10 μg/day sc 14 days,0
same,"Fatigue, subjects with TEAE",[2]; 10 μg/day sc 14 days,2
same,"Flatulence, subjects with TEAE",[2]; 10 μg/day sc 14 days,1
same,"Headache, subjects with TEAE",[2]; 10 μg/day sc 14 days,1
same,"Injection site erythema, subjects with TEAE",[2]; 10 μg/day sc 14 days,0
same,"Injection site haematoma, subjects with TEAE",[2]; 10 μg/day sc 14 days,3
same,"Injection site pain, subjects with TEAE",[2]; 10 μg/day sc 14 days,1
same,"Injection site pruritus, subjects with TEAE",[2]; 10 μg/day sc 14 days,0
same,"Injection site tenderness, subjects with TEAE",[2]; 10 μg/day sc 14 days,0
same,"Insomnia, subjects with TEAE",[2]; 10 μg/day sc 14 days,0
same,"Muscle spasms, subjects with TEAE",[2]; 10 μg/day sc 14 days,0
same,"Myalgia, subjects with TEAE",[2]; 10 μg/day sc 14 days,1
same,"Nausea, subjects with TEAE",[2]; 10 μg/day sc 14 days,0
same,"Somnolence, subjects with TEAE",[2]; 10 μg/day sc 14 days,1
same,"Vomiting, subjects with TEAE",[2]; 10 μg/day sc 14 days,0
same,"Abdominal pain, subjects with TEAE",[2]; 20 μg/day sc 14 days,0
same,"Application site irritation, subjects with TEAE",[2]; 20 μg/day sc 14 days,3
same,"Catheter site haematoma, subjects with TEAE",[2]; 20 μg/day sc 14 days,0
same,"Catheter site pain, subjects with TEAE",[2]; 20 μg/day sc 14 days,0
same,"Decreased appetite, subjects with TEAE",[2]; 20 μg/day sc 14 days,0
same,"Diarrhoea, subjects with TEAE",[2]; 20 μg/day sc 14 days,1
same,"Dizziness, subjects with TEAE",[2]; 20 μg/day sc 14 days,1
same,"Dry skin, subjects with TEAE",[2]; 20 μg/day sc 14 days,2
same,"Dyspepsia, subjects with TEAE",[2]; 20 μg/day sc 14 days,1
same,"Fatigue, subjects with TEAE",[2]; 20 μg/day sc 14 days,0
same,"Flatulence, subjects with TEAE",[2]; 20 μg/day sc 14 days,1
same,"Headache, subjects with TEAE",[2]; 20 μg/day sc 14 days,1
same,"Injection site erythema, subjects with TEAE",[2]; 20 μg/day sc 14 days,1
same,"Injection site haematoma, subjects with TEAE",[2]; 20 μg/day sc 14 days,3
same,"Injection site pain, subjects with TEAE",[2]; 20 μg/day sc 14 days,0
same,"Injection site pruritus, subjects with TEAE",[2]; 20 μg/day sc 14 days,2
same,"Injection site tenderness, subjects with TEAE",[2]; 20 μg/day sc 14 days,0
same,"Insomnia, subjects with TEAE",[2]; 20 μg/day sc 14 days,1
same,"Muscle spasms, subjects with TEAE",[2]; 20 μg/day sc 14 days,0
same,"Myalgia, subjects with TEAE",[2]; 20 μg/day sc 14 days,0
same,"Nausea, subjects with TEAE",[2]; 20 μg/day sc 14 days,2
same,"Somnolence, subjects with TEAE",[2]; 20 μg/day sc 14 days,0
same,"Vomiting, subjects with TEAE",[2]; 20 μg/day sc 14 days,0
same,"Abdominal pain, subjects with TEAE",[2]; 40 μg/day sc 14 days,1
same,"Application site irritation, subjects with TEAE",[2]; 40 μg/day sc 14 days,0
same,"Catheter site haematoma, subjects with TEAE",[2]; 40 μg/day sc 14 days,1
same,"Catheter site pain, subjects with TEAE",[2]; 40 μg/day sc 14 days,4
same,"Decreased appetite, subjects with TEAE",[2]; 40 μg/day sc 14 days,1
same,"Diarrhoea, subjects with TEAE",[2]; 40 μg/day sc 14 days,2
same,"Dizziness, subjects with TEAE",[2]; 40 μg/day sc 14 days,0
same,"Dry skin, subjects with TEAE",[2]; 40 μg/day sc 14 days,0
same,"Dyspepsia, subjects with TEAE",[2]; 40 μg/day sc 14 days,2
